In test [1] the target is T1, PI3Kα kinase (Homo sapiens, UniProt P42336).
T1 construct: purchased Invitrogen PV4788
Kind of test: PI3Ka Transcreener ADP assay (fluorescence polarization). It is filed as biochemical. As to conditions: 10 μM ATP, 30 μmol/L lipid substrate; read-out: IC50, inhibition of PI3Kα kinase. On the procedure: Fluorescence polarization was used in this assay. The final conditions for kinase assay are 10 μM of ATP, 0.2 ng/μL of PI3Kα kinase, 30 μmol/L of lipid substrate and assay buffer (50 mmol/L of HEPES (pH 7.5), 100 mmol/L of NaCl, 1 mmol/L of EGTA, 3 mmol/L of MgCl2, 1 mmol/L of DTT and 0.03% CHAPS and 2% DMSO).
5 μL of test compounds in 10% DMSO and 10 μL of 0.5 ng/μL PI3K kinase (Invitrogen, PV4788) in assay buffer are put into a 96-well plate (Greiner, Cat. 675076), and then the reaction is started by the addition of 10 μL of 75 μmol/L PIP2, (PS Lipid Substrate Invitrogen, PV5100), and 25 μmol/L ATP mixture. After the mixture is incubated for 60 minutes at room temperature, 25 μL of transcreener Kinase Kit reagent—ADP Detection Mix—(Bellbrook Labs) is added, and the reaction is continued for an additional 1.5 hours. At the end, the plate is read in a Tecan Infinite F500 at excitation of 610 nm and emission of 670 nm.
A standard curve for ADP is obtained in a parallel way by replacing compound and PI3Kα kinase with DMSO and assay buffer, respectively. Different concentration of ADP, 0-10 μM, and ATP, 10-0 μM (ATP+ADP equal to 10 μM) are applied instead of a fixed concentration of ATP in this standard curve assay. Other conditions are the same as described above. The standard curve is plotted using Origin 8.0 software. The inhibition of test compound on ADP production is calculated based on ADP concentration from standard curve. IC50 is obtained using XLfit 2.0 software.

The target in test [2] is T2, mTOR kinase (Homo sapiens, UniProt P42345).
T2 construct: purchased Invitrogen PV4753
T2 sequence (P42345 1360-2549 limits assumed): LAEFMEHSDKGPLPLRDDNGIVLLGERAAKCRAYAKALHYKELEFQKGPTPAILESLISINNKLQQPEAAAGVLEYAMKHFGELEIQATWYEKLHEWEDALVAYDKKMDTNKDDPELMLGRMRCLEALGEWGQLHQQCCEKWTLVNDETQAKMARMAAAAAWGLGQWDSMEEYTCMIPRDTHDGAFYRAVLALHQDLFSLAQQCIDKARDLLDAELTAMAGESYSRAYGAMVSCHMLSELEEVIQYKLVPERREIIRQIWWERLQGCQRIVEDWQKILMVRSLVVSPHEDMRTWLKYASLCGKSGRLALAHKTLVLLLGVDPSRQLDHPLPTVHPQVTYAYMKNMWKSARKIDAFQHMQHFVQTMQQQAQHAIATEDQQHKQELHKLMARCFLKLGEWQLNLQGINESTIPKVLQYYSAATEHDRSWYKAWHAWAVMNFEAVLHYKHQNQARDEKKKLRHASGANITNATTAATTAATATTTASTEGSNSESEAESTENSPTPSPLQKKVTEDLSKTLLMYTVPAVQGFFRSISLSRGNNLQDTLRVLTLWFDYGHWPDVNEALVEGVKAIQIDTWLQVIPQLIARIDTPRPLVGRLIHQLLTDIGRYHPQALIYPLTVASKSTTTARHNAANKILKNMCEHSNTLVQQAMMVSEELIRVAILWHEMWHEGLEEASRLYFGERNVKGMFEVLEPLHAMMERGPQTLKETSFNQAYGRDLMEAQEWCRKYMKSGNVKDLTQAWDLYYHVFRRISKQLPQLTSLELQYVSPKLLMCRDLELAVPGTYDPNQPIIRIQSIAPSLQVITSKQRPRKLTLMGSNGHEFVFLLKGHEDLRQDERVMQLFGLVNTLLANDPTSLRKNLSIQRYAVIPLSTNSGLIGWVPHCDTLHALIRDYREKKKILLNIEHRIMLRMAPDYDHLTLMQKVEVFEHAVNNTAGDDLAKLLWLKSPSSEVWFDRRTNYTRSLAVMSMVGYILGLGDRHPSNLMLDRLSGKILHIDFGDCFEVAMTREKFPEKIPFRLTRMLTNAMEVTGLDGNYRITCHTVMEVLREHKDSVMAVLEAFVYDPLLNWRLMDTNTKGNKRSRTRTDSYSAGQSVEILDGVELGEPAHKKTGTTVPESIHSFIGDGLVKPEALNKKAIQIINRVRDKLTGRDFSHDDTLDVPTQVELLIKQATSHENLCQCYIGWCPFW
Briefly: mTOR LanthaScreen TR-FRET assay. It is filed as biochemical. The conditions noted are these: 10 μmol/L ATP, GFP-4EBP1 substrate; read-out: IC50, inhibition of mTOR. On the procedure: Compounds are tested using LanthaScreen TR-FRET Assay. The kinase reaction is completed in 384-well black plate (Corning, Cat. 3676). The final conditions for kinase assay are: 10 μmol/L of ATP, 0.2 ng/μL of mTOR kinase, 0.4 μmol/L of GFP-4EBP1 substrate and assay buffer (50 mmol/L of HEPES, pH 7.5, 0.01% of Tween 20, 1 mmol/L of EGTA, 10 mmol/L of MnCl2, 2 mmol/L of DTT and 1% DMSO).
To each well, 2.5 μL of test compounds in 4% DMSO and 2.5 μL of 0.8 ng/μL mTOR kinase (Invitrogen, PV4753) diluted in assay buffer are added. The reaction is initiated by the addition of 5 μL mixture of 0.8 μmol/L GFP-4EBP1 Substrate (Invitorgen, PV4759) and 20 μmol/L ATP mixtures. The mixture is incubated at room temperature for 60 minutes. 10 μL of 20 mmol/L EDTA and 4 nmol/L Tb-anti-p4EBP1 [pThr46] antibody (Invitrogen, PV4755) diluted in TR-FRET dilution buffer are added and incubated for an additional 1 hour. The plate is then read in a BioTek Synergy2 Reader at excitation of 340 nm and emission of 490 nm and 528 nm.
The inhibition of test compound is calculated based on the ratio of 528 nm/490 nm. IC50 of test compound is obtained using XLfit 2.0 software.

SMILES strings stand for the structures. Some results are limits rather than exact numbers.

T1 sequence (P42336 whole entry): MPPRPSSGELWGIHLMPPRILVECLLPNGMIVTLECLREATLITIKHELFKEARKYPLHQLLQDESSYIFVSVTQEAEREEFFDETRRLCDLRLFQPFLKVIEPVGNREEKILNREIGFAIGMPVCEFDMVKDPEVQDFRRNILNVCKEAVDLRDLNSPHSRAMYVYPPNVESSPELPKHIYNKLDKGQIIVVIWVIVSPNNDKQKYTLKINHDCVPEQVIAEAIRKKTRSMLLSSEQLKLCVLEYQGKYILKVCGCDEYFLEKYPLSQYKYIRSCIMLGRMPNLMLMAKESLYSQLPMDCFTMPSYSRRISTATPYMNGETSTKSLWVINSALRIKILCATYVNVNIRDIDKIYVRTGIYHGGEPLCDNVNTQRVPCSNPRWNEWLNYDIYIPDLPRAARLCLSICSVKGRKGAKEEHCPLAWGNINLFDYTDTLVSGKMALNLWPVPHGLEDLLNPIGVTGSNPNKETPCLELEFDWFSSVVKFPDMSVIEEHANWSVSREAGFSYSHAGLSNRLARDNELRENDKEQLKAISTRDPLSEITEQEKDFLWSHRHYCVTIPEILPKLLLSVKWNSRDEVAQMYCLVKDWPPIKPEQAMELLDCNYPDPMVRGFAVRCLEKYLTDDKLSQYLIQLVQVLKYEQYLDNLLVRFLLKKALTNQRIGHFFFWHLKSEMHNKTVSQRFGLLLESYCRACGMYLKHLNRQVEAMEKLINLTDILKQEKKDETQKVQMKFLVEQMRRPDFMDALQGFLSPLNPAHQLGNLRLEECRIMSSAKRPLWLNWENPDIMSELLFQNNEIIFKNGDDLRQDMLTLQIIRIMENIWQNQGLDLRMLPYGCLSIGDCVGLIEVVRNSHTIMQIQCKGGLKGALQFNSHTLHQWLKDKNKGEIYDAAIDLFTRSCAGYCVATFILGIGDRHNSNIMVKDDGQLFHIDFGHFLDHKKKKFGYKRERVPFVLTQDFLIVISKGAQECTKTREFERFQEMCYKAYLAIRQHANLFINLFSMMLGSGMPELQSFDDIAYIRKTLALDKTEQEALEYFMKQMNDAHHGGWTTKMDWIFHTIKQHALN
T1 sequence (P27986 whole entry partner): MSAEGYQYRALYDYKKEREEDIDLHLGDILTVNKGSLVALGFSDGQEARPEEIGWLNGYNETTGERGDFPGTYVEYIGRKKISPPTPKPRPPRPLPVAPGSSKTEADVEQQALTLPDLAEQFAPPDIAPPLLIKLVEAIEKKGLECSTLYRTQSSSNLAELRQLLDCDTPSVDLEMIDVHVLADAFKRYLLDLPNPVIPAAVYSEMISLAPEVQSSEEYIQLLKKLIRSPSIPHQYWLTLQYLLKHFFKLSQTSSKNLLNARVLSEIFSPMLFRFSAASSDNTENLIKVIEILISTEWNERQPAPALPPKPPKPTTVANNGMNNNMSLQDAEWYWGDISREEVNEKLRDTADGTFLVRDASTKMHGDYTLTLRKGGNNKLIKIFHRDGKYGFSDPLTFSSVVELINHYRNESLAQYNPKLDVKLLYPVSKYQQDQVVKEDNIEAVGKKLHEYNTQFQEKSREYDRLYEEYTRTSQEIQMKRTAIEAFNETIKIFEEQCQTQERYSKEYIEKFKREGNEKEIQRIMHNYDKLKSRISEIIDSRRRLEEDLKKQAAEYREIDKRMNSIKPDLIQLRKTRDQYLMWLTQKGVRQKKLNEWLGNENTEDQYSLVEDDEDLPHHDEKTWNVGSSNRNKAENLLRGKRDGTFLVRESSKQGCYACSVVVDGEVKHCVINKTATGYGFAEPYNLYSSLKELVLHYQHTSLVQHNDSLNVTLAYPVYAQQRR

Take `Nc1ncc(-c2ccc3ncc4nnn(C5CCN(C(=O)C6CC6)CC5)c4c3n2)cc1C(F)(F)F` [Compound 9]: the IC50 in test [1] and in test [2] was below 100 nM throughout.
Turning to `Nc1ncc(-c2ccc3ncc4nnn(C5CCOCC5)c4c3n2)cc1C(F)(F)F` [Compound 10], the concentration for half-maximal inhibition (IC50) in test [1] and in test [2] was below 100 nM each time.
For the compound `Nc1ncc(-c2ccc3ncc4nnn(Cc5ccc(F)cc5)c4c3c2)cn1` [Compound 12], the IC50 in test [1] and in test [2] was below 100 nM throughout.
Regarding `Nc1ncc(-c2ccc3ncc4nnn(-c5ccc6[nH]ncc6c5)c4c3c2)cc1C(F)(F)F` [Compound 14], the IC50 in test [1] and in test [2] was below 100 nM throughout.
Consider `CC(C)(C#N)c1ccc(-n2nnc3cnc4ccc(-c5cnc(N)c(C(F)(F)F)c5)nc4c32)cn1` [Compound 16], for which the IC50 in test [1] and in test [2] was below 100 nM in each case.
Turning to `CC(C)(C#N)c1ccc(-n2nnc3cnc4ccc(-c5cnc(N)c(C(F)(F)F)c5)nc4c32)cc1` [Compound 17], the IC50 in test [1] and in test [2] was below 100 nM in each case.
Turning to `C[C@@H](O)C(=O)N1CCC(n2nnc3cnc4ccc(-c5cnc(N)c(C(F)(F)F)c5)nc4c32)CC1` [Compound 21, (R)-1-(4-(8-(6-amino-5-(trifluoromethyl)pyridin-3-yl)-1H-[1,2,3]triazolo[4,5-c][1,5]naphthyridin-1-yl)piperidin-1-yl)-2-hydroxypropan-1-one], the IC50 in test [1] and in test [2] was below 100 nM each time.
Turning to `Nc1ncc(-c2ccc3ncc4nnn(C5CCN(C(=O)CO)CC5)c4c3n2)cc1C(F)(F)F` [Compound 25], the IC50 in test [1] and in test [2] was below 100 nM in each case.
On to `CC(C)(O)C(=O)N1CCC(n2nnc3cnc4ccc(-c5cnc(N)c(C(F)(F)F)c5)nc4c32)CC1` [Compound 26], for which the IC50 in test [1] and in test [2] was below 100 nM throughout.
On to `CC(C)C(=O)N1CCC(n2nnc3cnc4ccc(-c5cnc(N)c(C(F)(F)F)c5)nc4c32)CC1` [Compound 30, 1-(4-(8-(6-amino-5-(trifluoromethyl)pyridin-3-yl)-1H-[1,2,3]triazolo[4,5-c][1,5]naphthyridin-1-yl)piperidin-1-yl)-2-methylpropan-1-one], for which the IC50 in test [1] and in test [2] was below 100 nM in each case.
With `N#CC1(C(=O)N2CCC(n3nnc4cnc5ccc(-c6cnc(N)c(C(F)(F)F)c6)nc5c43)CC2)CC1` [Compound 33], the IC50 in test [1] and in test [2] was below 100 nM each time.
Regarding `CCCC(=O)N1CCC(n2nnc3cnc4ccc(-c5cnc(N)c(C(F)(F)F)c5)nc4c32)CC1` [Compound 35], the IC50 in test [1] and in test [2] was below 100 nM each time.
`Cn1c(=O)n(-c2ccc(C(C)(C)C#N)nc2)c2c3cc(-c4cnc(N)nc4)ccc3ncc21` [Compound 42]: the IC50 in test [1] and in test [2] was below 100 nM throughout.
As for `CN(C)C(=O)CN1CCC(n2nnc3cnc4ccc(-c5cnc(N)c(C(F)(F)F)c5)nc4c32)CC1` [Compound 43, 2-(4-(8-(6-amino-5-(trifluoromethyl)pyridin-3-yl)-1H-[1,2,3]triazolo[4,5-c][1,5]naphthyridin-1-yl)piperidin-1-yl)-N,N-dimethylacetamide], the IC50 in test [1] and in test [2] was below 100 nM each time.
As for `CC1(CN2CCC(n3nnc4cnc5ccc(-c6cnc(N)c(C(F)(F)F)c6)nc5c43)CC2)COC1` [Compound 44], the IC50 in test [1] and in test [2] was below 100 nM throughout.
Consider `CCNC(=O)N1CCC(n2nnc3cnc4ccc(-c5cnc(N)c(C(F)(F)F)c5)nc4c32)CC1` [Compound 45], for which the IC50 in test [1] and in test [2] was below 100 nM each time.
In the case of `Nc1ncc(-c2ccc3ncc4nnn(C5CCN(CCO)CC5)c4c3n2)cc1C(F)(F)F` [Compound 46], the IC50 in test [1] and in test [2] was below 100 nM throughout.
Turning to `CC(C)(C#N)c1ccc(-c2nnc3cnc4ccc(-c5cnc(N)c(C(F)(F)F)c5)cc4n23)cc1` [Compound 49, 2-(4-(8-(6-amino-5-(trifluoromethyl)pyridin-3-yl)-[1,2,4]triazolo[4,3-a]quinoxalin-1-yl)phenyl)-2-methylpropanenitrile], the IC50 in test [1] and in test [2] was below 100 nM in each case.
With `CC(C)(C#N)c1ccc(-c2nnc3cnc4ccc(-c5ccc(N)nc5)cc4n23)cc1` [Compound 50], the IC50 in test [1] and in test [2] was below 100 nM throughout.
With `CC(C)(C#N)c1ccc(-c2nnc3cnc4ccc(-c5ccc6nc(N)sc6c5)cc4n23)cc1` [Compound 52], the IC50 in test [1] and in test [2] was below 100 nM throughout.
As for `CC(C)(C#N)c1ccc(-c2nnc3cnc4ccc(-c5cnc6[nH]ncc6c5)cc4n23)cc1` [Compound 53], the IC50 in test [1] and in test [2] was below 100 nM each time.
Take `CC(C)(C#N)c1ccc(-c2nnc3cnc4ccc(-c5ccc6nc(N)oc6c5)cc4n23)cc1` [Compound 55]: the IC50 in test [1] and in test [2] was below 100 nM each time.
For the compound `CC(C)(C#N)c1ccc(-c2nnc3cnc4ccc(-c5ccc6nc(N)sc6c5)cc4n23)cn1` [Compound 56], the IC50 in test [1] and in test [2] was below 100 nM each time.
Turning to `Cc1cc(-c2ccc3ncc4nnc(-c5ccc(C(C)(C)C#N)cc5)n4c3c2)cnc1N` [Compound 58], the half-maximal inhibitory concentration (IC50) in test [1] and in test [2] was below 100 nM each time.
For `N#Cc1cccc(-c2nnc3cnc4ccc(-c5ccc6nc(N)sc6c5)cc4n23)c1` [Compound 63], the IC50 in test [1] and in test [2] was below 100 nM in each case.
Regarding `CC(C)(C#N)c1ccc(-c2nnc3cnc4ccc(-c5cnc(N)c(F)c5)cc4n23)cc1` [Compound 66], the IC50 in test [1] and in test [2] was below 100 nM each time.
For the compound `COc1cc(-c2ccc3ncc4nnc(-c5ccc(C(C)(C)C#N)cc5)n4c3c2)cnc1N` [Compound 72], the IC50 in test [1] and in test [2] was below 100 nM in each case.
In the case of `CCOc1cc(-c2ccc3ncc4nnc(-c5ccc(C(C)(C)C#N)cc5)n4c3c2)cnc1N` [Compound 75], the IC50 in test [1] and in test [2] was below 100 nM in each case.
As to `Nc1ncc(-c2ccc3ncc4ncn(C5CCN(C(=O)C6CC6)CC5)c4c3n2)cc1C(F)(F)F` [Compound 88, (4-(8-(6-amino-5-(trifluoromethyl)pyridine-3-yl)-1H-imidazo[4,5-c][1,5]naphthyridin-1-yl)piperidin-1-yl)(cyclopropyl)methanone], the IC50 in test [1] and in test [2] was below 100 nM in each case.
In the case of `CCC(=O)N1CCC(n2cnc3cnc4ccc(-c5cnc(N)c(C(F)(F)F)c5)nc4c32)CC1` [Compound 96], the IC50 in test [1] and in test [2] was below 100 nM in each case.
Consider `CN(C)C(=O)CN1CCC(n2cnc3cnc4ccc(-c5cnc(N)c(C(F)(F)F)c5)nc4c32)CC1` [Compound 98], for which the IC50 in test [1] and in test [2] was below 100 nM throughout.
On to `CC(=O)N1CCC(n2cnc3cnc4ccc(-c5cnc(N)c(C(F)(F)F)c5)nc4c32)CC1` [Compound 102], for which the IC50 in test [1] and in test [2] was below 100 nM in each case.
For `CS(=O)(=O)N1CCC(n2cnc3cnc4ccc(-c5cnc(N)c(C(F)(F)F)c5)nc4c32)CC1` [Compound 103], the IC50 in test [1] and in test [2] was below 100 nM each time.
Turning to `CC1(CN2CCC(n3cnc4cnc5ccc(-c6cnc(N)c(C(F)(F)F)c6)nc5c43)CC2)COC1` [Compound 105], the IC50 in test [1] and in test [2] was below 100 nM throughout.

The record behind these values is patent US9181264B2, “Fused heteroaryls and their uses” (Hutchison MediPharma Limited, priority 2011, dated 2015).
